How the values were obtained:
Test in all cases: Twenty-four hour biofilm growth (crystal violet)
Type in all cases: cell-based
Settings in all cases: 24 hours, control = 1
[1] = system: Streptococcus salivarius
Procedure: (§1) The increase in biofilm formation of the tested bacteria in response to selected glycosides (β-methyl-D-galactoside and α-methyl-D-galactoside) was investigated by setting up biofilm growth assays in a nutritionally rich medium (brain heart infusion broth (BHI), Oxoid), over 24 hours. Late exponential growth phase liquid cultures were prepared by transferring the respective bacterium from blood agar plates to BHI and overnight incubation at 37° C. in an anaerobic atmosphere for A. viscosus, V. parvula, P. gingivalis, P. intermedia, T. forsythia, A. naeslundii, and C. sputigena, and in a 5% CO2 environment for S. salivarius, S. sanguinis, S. mitis, A. actinomycetemcomitans, S. mutans, and S. gordonii. Overnight cultures were transferred to BHI and adjusted to a concentration of 1×10^7 CFU/ml by measuring the optical density at 600 nm (OD600) (BioRad SmartSpec 3000). For each strain, 200 μl of the bacterial suspension was added to a 96-well plate containing 20 μl of the respective glycosides. Final concentrations of the glycosides were set to 5, 10, 20 and 25 μmol/ml. […] Additionally, for each bacterium tested, a background control, to correct for background staining, was added. This background control contained the bacterium tested and 0.03 weight % chlorhexidine, as an antiseptic. Plates were incubated as previously described. After 24 hrs the supernatant was removed from the wells of the plates. The wells were washed twice with 1×100 μL PBS (phosphate buffered saline), fixed for 20 minutes with 96% vol. ethanol (96% vol. solution in water) and the biofilm retained at the bottom of the wells was stained with 1 weight % crystal violet (1 weight % solution in water). The bound dye was dissolved with 5% vol. acetic acid (5% vol. solution in water). Quantification of the stained biofilm was performed by measuring the absorbance at 630 nm using a Multiskan Ascent microplate reader (Thermo Scientific). […] The experiment was carried out on three different days (thus providing 3 biological replicas) and each day the experiment was carried out in quadruple (thus providing 4 technical replicas) for each combination of bacterium with glycoside and for each control. For each day and for each combination, the average (mean) of the values obtained (as detailed above) for the four technical replicas was calculated to provide a single value for each combination on each day. The values shown in Tables 7 to 8, below, are the average (mean) of the three single values obtained for each combination of bacterium with glycoside.

[2] = system: Actinomyces viscosus
Procedure: as §1

[3] = system: Streptococcus gordonii
Procedure: as §1

[4] = system: Streptococcus mutans
Procedure: as §1

[5] = system: Prevotella intermedia
Procedure: as §1

[6] = system: Veillonella parvula
Procedure: as §1

[7] = system: Capnocytophaga sputigena
Procedure: as §1

[8] = system: Porphyromonas gingivalis
Procedure: as §1

[9] = system: Tannerella forsythia
Procedure: as §1

[10] = system: Aggregatibacter actinomycetemcomitans
Procedure: as §1

[11] = system: Streptococcus mitis
Procedure: as §1

[12] = system: Streptococcus sanguinis
Procedure: as §1

[13] = system: Actinomyces naeslundii
Procedure: as §1

## CO[C@H]1O[C@H](CO)[C@H](O)[C@H](O)[C@H]1O [α-methyl-D-galactoside]
[1]; 5 μmol/ml
  biofilm OD 630 nm divided by control (biofilm growth): 0.9165
[1]; 10 μmol/ml
  biofilm OD 630 nm divided by control (biofilm growth): 0.9115
[1]; 20 μmol/ml
  biofilm OD 630 nm divided by control (biofilm growth): 1.1202
[1]; 25 μmol/ml
  biofilm OD 630 nm divided by control (biofilm growth): 0.9258
[2]; 5 μmol/ml
  biofilm OD 630 nm divided by control (biofilm growth): 0.7268
[2]; 10 μmol/ml
  biofilm OD 630 nm divided by control (biofilm growth): 0.7293
[2]; 20 μmol/ml
  biofilm OD 630 nm divided by control (biofilm growth): 0.7490
[2]; 25 μmol/ml
  biofilm OD 630 nm divided by control (biofilm growth): 0.6777
[3]; 5 μmol/ml
  biofilm OD 630 nm divided by control (biofilm growth): 0.6940
[3]; 10 μmol/ml
  biofilm OD 630 nm divided by control (biofilm growth): 0.6458
[3]; 20 μmol/ml
  biofilm OD 630 nm divided by control (biofilm growth): 0.6465
[3]; 25 μmol/ml
  biofilm OD 630 nm divided by control (biofilm growth): 0.6859
[4]; 5 μmol/ml
  biofilm OD 630 nm divided by control (biofilm growth): 1.2046
[4]; 10 μmol/ml
  biofilm OD 630 nm divided by control (biofilm growth): 1.3284
[4]; 20 μmol/ml
  biofilm OD 630 nm divided by control (biofilm growth): 1.5452
[4]; 25 μmol/ml
  biofilm OD 630 nm divided by control (biofilm growth): 1.7240
[5]; 5 μmol/ml
  biofilm OD 630 nm divided by control (biofilm growth): 1.1518
[5]; 10 μmol/ml
  biofilm OD 630 nm divided by control (biofilm growth): 1.1589
[5]; 20 μmol/ml
  biofilm OD 630 nm divided by control (biofilm growth): 1.0758
[5]; 25 μmol/ml
  biofilm OD 630 nm divided by control (biofilm growth): 0.9774
[6]; 5 μmol/ml
  biofilm OD 630 nm divided by control (biofilm growth): 1.0323
[6]; 10 μmol/ml
  biofilm OD 630 nm divided by control (biofilm growth): 1.0615
[6]; 20 μmol/ml
  biofilm OD 630 nm divided by control (biofilm growth): 1.0577
[6]; 25 μmol/ml
  biofilm OD 630 nm divided by control (biofilm growth): 1.1040
[7]; 5 μmol/ml
  biofilm OD 630 nm divided by control (biofilm growth): 0.9689
[7]; 10 μmol/ml
  biofilm OD 630 nm divided by control (biofilm growth): 1.0025
[7]; 20 μmol/ml
  biofilm OD 630 nm divided by control (biofilm growth): 1.1142
[7]; 25 μmol/ml
  biofilm OD 630 nm divided by control (biofilm growth): 0.9669
[8]; 5 μmol/ml
  biofilm OD 630 nm divided by control (biofilm growth): 0.9047
[8]; 10 μmol/ml
  biofilm OD 630 nm divided by control (biofilm growth): 0.9772
[8]; 20 μmol/ml
  biofilm OD 630 nm divided by control (biofilm growth): 0.9820
[8]; 25 μmol/ml
  biofilm OD 630 nm divided by control (biofilm growth): 1.0029
[9]; 5 μmol/ml
  biofilm OD 630 nm divided by control (biofilm growth): 0.7627
[9]; 10 μmol/ml
  biofilm OD 630 nm divided by control (biofilm growth): 1.0506
[9]; 20 μmol/ml
  biofilm OD 630 nm divided by control (biofilm growth): 0.8302
[9]; 25 μmol/ml
  biofilm OD 630 nm divided by control (biofilm growth): 1.0929
[10]; 5 μmol/ml
  biofilm OD 630 nm divided by control (biofilm growth): 0.9911
[10]; 10 μmol/ml
  biofilm OD 630 nm divided by control (biofilm growth): 0.9943
[10]; 20 μmol/ml
  biofilm OD 630 nm divided by control (biofilm growth): 1.1846
[10]; 25 μmol/ml
  biofilm OD 630 nm divided by control (biofilm growth): 1.1720
[11]; 5 μmol/ml
  biofilm OD 630 nm divided by control (biofilm growth): 1.4898
[11]; 10 μmol/ml
  biofilm OD 630 nm divided by control (biofilm growth): 1.2441
[11]; 20 μmol/ml
  biofilm OD 630 nm divided by control (biofilm growth): 1.3917
[11]; 25 μmol/ml
  biofilm OD 630 nm divided by control (biofilm growth): 1.2800
[12]; 5 μmol/ml
  biofilm OD 630 nm divided by control (biofilm growth): 2.6029
[12]; 10 μmol/ml
  biofilm OD 630 nm divided by control (biofilm growth): 2.4812
[12]; 20 μmol/ml
  biofilm OD 630 nm divided by control (biofilm growth): 2.1593
[12]; 25 μmol/ml
  biofilm OD 630 nm divided by control (biofilm growth): 2.4656
[13]; 5 μmol/ml
  biofilm OD 630 nm divided by control (biofilm growth): 0.9655
[13]; 10 μmol/ml
  biofilm OD 630 nm divided by control (biofilm growth): 0.9764
[13]; 20 μmol/ml
  biofilm OD 630 nm divided by control (biofilm growth): 0.9692
[13]; 25 μmol/ml
  biofilm OD 630 nm divided by control (biofilm growth): 0.9789

## CO[C@@H]1O[C@H](CO)[C@H](O)[C@H](O)[C@H]1O [β-methyl-D-galactoside]
[1]; 5 μmol/ml
  biofilm OD 630 nm divided by control (biofilm growth): 3.1530
[1]; 10 μmol/ml
  biofilm OD 630 nm divided by control (biofilm growth): 5.6484
[1]; 20 μmol/ml
  biofilm OD 630 nm divided by control (biofilm growth): 18.9267
[1]; 25 μmol/ml
  biofilm OD 630 nm divided by control (biofilm growth): 20.1333
[2]; 5 μmol/ml
  biofilm OD 630 nm divided by control (biofilm growth): 0.5917
[2]; 10 μmol/ml
  biofilm OD 630 nm divided by control (biofilm growth): 0.5767
[2]; 20 μmol/ml
  biofilm OD 630 nm divided by control (biofilm growth): 0.6104
[2]; 25 μmol/ml
  biofilm OD 630 nm divided by control (biofilm growth): 0.6322
[3]; 5 μmol/ml
  biofilm OD 630 nm divided by control (biofilm growth): 0.7601
[3]; 10 μmol/ml
  biofilm OD 630 nm divided by control (biofilm growth): 0.6695
[3]; 20 μmol/ml
  biofilm OD 630 nm divided by control (biofilm growth): 0.6763
[3]; 25 μmol/ml
  biofilm OD 630 nm divided by control (biofilm growth): 0.6429
[4]; 5 μmol/ml
  biofilm OD 630 nm divided by control (biofilm growth): 1.3512
[4]; 10 μmol/ml
  biofilm OD 630 nm divided by control (biofilm growth): 1.0007
[4]; 20 μmol/ml
  biofilm OD 630 nm divided by control (biofilm growth): 1.1097
[4]; 25 μmol/ml
  biofilm OD 630 nm divided by control (biofilm growth): 1.2791
[5]; 5 μmol/ml
  biofilm OD 630 nm divided by control (biofilm growth): 1.1201
[5]; 10 μmol/ml
  biofilm OD 630 nm divided by control (biofilm growth): 1.0925
[5]; 20 μmol/ml
  biofilm OD 630 nm divided by control (biofilm growth): 1.1229
[5]; 25 μmol/ml
  biofilm OD 630 nm divided by control (biofilm growth): 1.1007
[6]; 5 μmol/ml
  biofilm OD 630 nm divided by control (biofilm growth): 1.0106
[6]; 10 μmol/ml
  biofilm OD 630 nm divided by control (biofilm growth): 1.0266
[6]; 20 μmol/ml
  biofilm OD 630 nm divided by control (biofilm growth): 1.0191
[6]; 25 μmol/ml
  biofilm OD 630 nm divided by control (biofilm growth): 1.0384
[7]; 5 μmol/ml
  biofilm OD 630 nm divided by control (biofilm growth): 0.7253
[7]; 10 μmol/ml
  biofilm OD 630 nm divided by control (biofilm growth): 0.8100
[7]; 20 μmol/ml
  biofilm OD 630 nm divided by control (biofilm growth): 0.8487
[7]; 25 μmol/ml
  biofilm OD 630 nm divided by control (biofilm growth): 0.9428
[8]; 5 μmol/ml
  biofilm OD 630 nm divided by control (biofilm growth): 0.9407
[8]; 10 μmol/ml
  biofilm OD 630 nm divided by control (biofilm growth): 0.9326
[8]; 20 μmol/ml
  biofilm OD 630 nm divided by control (biofilm growth): 0.9049
[8]; 25 μmol/ml
  biofilm OD 630 nm divided by control (biofilm growth): 0.9163
[9]; 5 μmol/ml
  biofilm OD 630 nm divided by control (biofilm growth): 0.7494
[9]; 10 μmol/ml
  biofilm OD 630 nm divided by control (biofilm growth): 0.6979
[9]; 20 μmol/ml
  biofilm OD 630 nm divided by control (biofilm growth): 0.9049
[9]; 25 μmol/ml
  biofilm OD 630 nm divided by control (biofilm growth): 0.8051
[10]; 5 μmol/ml
  biofilm OD 630 nm divided by control (biofilm growth): 1.1108
[10]; 10 μmol/ml
  biofilm OD 630 nm divided by control (biofilm growth): 1.0188
[10]; 20 μmol/ml
  biofilm OD 630 nm divided by control (biofilm growth): 1.0927
[10]; 25 μmol/ml
  biofilm OD 630 nm divided by control (biofilm growth): 1.0212
[11]; 5 μmol/ml
  biofilm OD 630 nm divided by control (biofilm growth): 1.3127
[11]; 10 μmol/ml
  biofilm OD 630 nm divided by control (biofilm growth): 1.1242
[11]; 20 μmol/ml
  biofilm OD 630 nm divided by control (biofilm growth): 1.1524
[11]; 25 μmol/ml
  biofilm OD 630 nm divided by control (biofilm growth): 1.1692
[12]; 5 μmol/ml
  biofilm OD 630 nm divided by control (biofilm growth): 1.8586
[12]; 10 μmol/ml
  biofilm OD 630 nm divided by control (biofilm growth): 2.3853
[12]; 20 μmol/ml
  biofilm OD 630 nm divided by control (biofilm growth): 2.3700
[12]; 25 μmol/ml
  biofilm OD 630 nm divided by control (biofilm growth): 2.4211
[13]; 5 μmol/ml
  biofilm OD 630 nm divided by control (biofilm growth): 0.9907
[13]; 10 μmol/ml
  biofilm OD 630 nm divided by control (biofilm growth): 0.9316
[13]; 20 μmol/ml
  biofilm OD 630 nm divided by control (biofilm growth): 0.9697
[13]; 25 μmol/ml
  biofilm OD 630 nm divided by control (biofilm growth): 0.9727
